Results: ChEMBL document CHEMBL5325432, “Systematic study of 1,2,3-triazolyl sterols for the development of new drugs against parasitic Neglected Tropical Diseases” (Eur J Med Chem, 2023)

Legend:
[1] = system: Trypanosoma brucei; experiment: Antiparasitic activity against Trypanosoma brucei assessed as parasite growth inhibition incubated for 3 days by Alamar blue assay; type: functional, organism-based; settings: 72 h
[2] = system: Leishmania donovani; experiment: Antileishmanial activity against Leishmania donovani S1 promastigotes assessed as parasite growth inhibition incubated for 72 hrs by Alamar blue assay; type: functional, organism-based; settings: S1, 72 h
[3] = Selectivity index, ratio of IC50 for cytotoxicity against African green monkey Vero cells to IC50 for antileishmanial activity against Leishmania donovani S1 promastigotes assessed as parasite growth inhibition; type: toxicity, cell-based; settings: read-out: Ratio IC50
[4] = Selectivity index, ratio of IC50 for cytotoxicity against African green monkey Vero cells to IC50 for antiparasitic activity against Trypanosoma cruzi epimastigotes assessed as parasite growth inhibition; type: toxicity, cell-based; settings: read-out: Ratio IC50
[5] = system: Trypanosoma cruzi; experiment: Antiparasitic activity against Trypanosoma cruzi epimastigotes assessed as parasite growth inhibition incubated for 14 days by Alamar blue assay; type: functional, organism-based; settings: 336 h
[6] = Cytotoxicity against African green monkey Vero cells incubated for 48 hrs; type: toxicity, cell-based; settings: African green monkey (Chlorocebus sabaeus)
[7] = Selectivity index, ratio of IC50 for cytotoxicity against African green monkey Vero cells to IC50 for antiparasitic activity against Trypanosoma brucei assessed as parasite growth inhibition; type: toxicity, cell-based; settings: read-out: Ratio IC50
[8] = Cytotoxicity against human MRC5 cells incubated for 7 days by MTT colorimetric assay; type: toxicity, cell-based

Row | Compound | IC50 [1] | IC50 [5] | IC50 [2] | selectivity ratio [3] | selectivity ratio [4] | IC50 at 48 h [6] | selectivity ratio [7] | IC50 at 7 days [8]
1 | CCCCCCCCn1cc(CNC[C@](C)(O)[C@H]2CC[C@H]3[C@@H]4CC=C5C[C@@H](O)CC[C@]5(C)[C@H]4CC[C@@]32C)nn1 | 630 nM | 8.13 µM | 1460 nM | > 6.33 | > 1.14 | > 9.24 µM | > 14.7 | 
2 | CCOC(=O)Cn1cc(CN[C@@H](C)[C@H]2CC[C@H]3[C@@H]4CC=C5C[C@@H](OC(C)=O)CC[C@]5(C)[C@H]4CC[C@]23C)nn1 | 660 nM | 7.8 µM | 4900 nM | > 1.94 | > 1.22 | > 9.49 µM | > 14.4 | 
3 | Nc1nc(N)nc(Nc2ccc([As]3SCC(CO)S3)cc2)n1 (configuration not stated) [MELARSOPROL] |  |  |  |  |  |  | 62.5 | 12.5 µM

Now from value to compound, other results behind:

Row | IC50 [1] | IC50 [5] | Compound | IC50 [2] | selectivity ratio [3] | selectivity ratio [4] | IC50 at 48 h [6] | selectivity ratio [7] | IC50 at 7 days [8]
4 | 120 nM | 8.28 µM | C[C@]12CC[C@H]3[C@@H](CC=C4C[C@@H](O)CC[C@@]43C)[C@@H]1CC[C@@H]2[C@@](C)(O)CNCc1cn(Cc2ccccc2)nn1 | 1950 nM | > 4.95 | > 1.16 | > 9.64 µM | > 80.3 | 
5 | 200 nM | 6.3 µM | CC(=O)O[C@H]1CC[C@@]2(C)C(=CC[C@H]3[C@@H]4CC[C@H]([C@H](C)NCc5cn(CCCc6ccccc6)nn5)[C@@]4(C)CC[C@@H]32)C1 | 2990 nM | > 2.99 | > 1.42 | > 8.95 µM | > 44.7 | 
6 | 650 nM | 9 µM | CC(C)=CCC/C(C)=C/Cn1cc(CNC[C@](C)(O)[C@H]2CC[C@H]3[C@@H]4CC=C5C[C@@H](O)CC[C@]5(C)[C@H]4CC[C@@]32C)nn1 | 780 nM | > 11.4 | > 0.98 | > 8.85 µM | > 13.6 | 
